# Measured values as given in US20110166149A1, “PTERIDINE DERIVATIVES FOR TREATING RESPIRATORY DISEASE” (TARGEGEN INC., priority 2008, published 2011).
# Several values for one entry are separate records, joined by “and”; a condition that tells them apart may be missing. Equal entries are not always repeated. Where two headings read alike, the source gives them in different places.
# Key:
# [1] = Particle size of nebulized solution, 7 stage cascade impactor (Example 5); format: physicochemical; details: nebulized solution ~3.3 mg/mL, pH ~3, tyloxapol/PVP 90F
# Procedure: 36 mg of compound A was dissolved with the aid of 0.5 N HCl (QS to 1 g) under mixing and heat. 200 μL of this solution was mixed using a sonicator bath, if necessary with a separately prepared solution containing 1.8 mg of a 0.02% tyloxapol/2% PVP 90F and 34 μL of a 2 N NaOH, to give a final concentration of ˜3.3 mg/mL of compound A at a pH of ˜3.
# [2] = Lung exposure in mice, nose-only chamber nebulization (Example 3); format: in vivo, Balb/c mice; details: 30 min nebulization, immediately after
# Procedure: A series of compositions for pulmonary delivery were prepared by making a 20% suspension of compound A in a 5% tyloxapol solution in water. Particle size reduction was achieved using a colloid mill (magicLAB®, MK module, for 6 hours @ 12,000 rpm, while maintaining a temperature below 50° C.). Samples at 4% compound A were prepared by dilution with DI water. A 0.4% compound A suspension in 0.1% tyloxapol solution, was made by dilution with SWFI (6.02 g of the 20% suspension was QS to 30.23 g with SWFI).
# 0.4% compound A suspension in 0.1% tyloxapol solution: 2.07 g of a 4% compound A suspension was diluted to 20 g with DI water.
# 0.04% compound A suspension in 0.01% tyloxapol solution: 2.03 g of a 0.4% compound A suspension was diluted to 20 g with DI water. 0.004% compound A suspension in 0.001% tyloxapol solution: 2.05 g of a 0.04% compound A suspension was diluted to 20 g with DI water.
# Compositions were delivered via a nose-only chamber (CH Technologies) to Balb/c mice by nebulizing for 30 minutes the composition with a PARI LC plus at 3 LPM with a 5 LPM dilutor (of dry air), tissues, plasma and BALF (3 mL used of PBS) collected after sacrificing immediately after nebulization, and were analyzed by HPLC-MS.
# Solubility of Compound A = format: physicochemical
# [3] = system: ovalbumin (OVA) challenged mice; assay: Mouse airway resistance, methacholine challenge (Example 4); format: in vivo; details: aerosolized formulations, FIG. 4
# Procedure: A series of compositions for pulmonary delivery were prepared by first preparing a 20% suspension of compound A in a 5% tyloxapol solution in water. Particle size reduction was achieved using a colloid mill (magicLAB®, MK module, for 6 hours @ 12,000 rpm, while maintaining a temperature below 50° C.). Samples at 4% compound A were prepared by dilution with DI water. A 0.4% compound A suspension in 0.1% tyloxapol solution was made by dilution with SWFI (6.02 g of the 20% suspension was QS to 30.23 g with SWFI) and the following suspensions were also prepared: • […] in 0.01% tyloxapol solution: 2.52 g of a 0.4% compound A suspension was diluted to 100 g with SWFI water. • 0.01% compound A suspension in 0.01% tyloxapol solution: 10 g of a 0.1% compound A suspension was diluted to 100 g with SWFI water. • 0.001% compound A suspension in 0.01% tyloxapol solution 3: 10 g of a 0.1% compound A suspension was diluted to 100 g with SWFI water. […] Airway resistance in the model is induced via a methacholine challenge. Airway resistance is both a diagnostic and a hallmark of respiratory diseases such as asthma and COPD and the reduction of airway resistance is considered a beneficial outcome.
# [4] = Aerodynamic particle size of nebulized suspensions, 7 stage impactor (Example 1); format: physicochemical; details: nebulized suspension
# Procedure: 6,7-bis(3-hydroxyphenyl)-pteridine-2,4-diamine (Compound A) was formulated as a 20% suspension in a 5% tyloxapol solution in water. Particle size reduction was achieved using a colloid mill (magicLAB®, MK module, for 6 hours @ 12,000 rpm, while maintaining a temperature below 50° C.). Samples at 4, 0.4, 0.04 and 0.004% of compound A were prepared by dilution with DI water.
# Nebulizations of the suspensions were carried out using a Pari LC Plus @ 3 LPM, using an active diluter at 5 LPM in a CH technologies nose-only exposure chamber. Aerodynamic particle size was determined by a 7 stage impactor from Intox at 1 LPM. Each stage extracted with acetonitrile:water 1:1 with 0.05% TFA and analyzed by HPLC against an external standard.
# [5] = Stability / precipitation of compound A solutions at pH ~3 (Examples 5, 6); format: physicochemical
# Procedure: 36 mg of compound A was dissolved with the aid of 0.5 N HCl (QS to 1 g) under mixing and heat. 200 μL of this solution was mixed using a sonicator bath, if necessary with a separately prepared solution containing 1.8 mg of a 0.02% tyloxapol/2% PVP 90F and 34 μL of a 2 N NaOH, to give a final concentration of ˜3.3 mg/mL of compound A at a pH of ˜3. […] 200 μL of the above solution was mixed using a sonicator bath, if necessary with a solution containing 1.8 mg of a 0.02% tyloxapol/2% PVP 90F and 10 μL of a 2 N NaOH, to give a final concentration of ˜5 mg/mL of compound A at a pH of ˜3. This solution will start precipitating ˜20 min.
# [6] = formulation conc. 0.004%, individual animals 3A-3E
# [7] = formulation conc. 0.04%, individual animals 2A-2E
# [8] = formulation conc. 0.40%, individual animals 1A-1E
smiles,measurement,setting,value
"Nc1nc(N)c2nc(-c3cccc(O)c3)c(-c3cccc(O)c3)nc2n1 [Compound A, 6,7-bis(3-hydroxyphenyl)-pteridine-2,4-diamine]",GSD,[1],2.1
same,MMAD,[1],~1 μm
same,Compound A concentration BALF,"[2]; formulation conc. 0.004%, Mean",22.9 ± 34.0 ng/mL
same,Compound A concentration Lung,"[2]; formulation conc. 0.004%, Mean",0.12 ± 0.02 µg/g
same,Compound A concentration Plasma,"[2]; formulation conc. 0.004%, Mean",<LLOQ
same,Compound A concentration BALF,[2]; [6],83.6 ng/mL and 10.0 ng/mL and 7.84 ng/mL and 7.82 ng/mL and 4.99 ng/mL
same,Compound A concentration Lung,[2]; [6],0.14 μg/g and 0.12 μg/g and 0.10 μg/g (2×) and 0.13 μg/g
same,Compound A concentration Plasma,[2]; [6],<LLOQ
same,Compound A concentration BALF,"[2]; formulation conc. 0.04%, Mean",71.6 ± 38.4 ng/mL
same,Compound A concentration Lung,"[2]; formulation conc. 0.04%, Mean",1.48 ± 0.49 µg/g
same,Compound A concentration BALF,[2]; [7],62.6 ng/mL and 93 ng/mL and 92.1 ng/mL and 102 ng/mL and 8.19 ng/mL
same,Compound A concentration Lung,[2]; [7],2.3 µg/g and 1.0 µg/g and 1.5 µg/g and 1.4 µg/g and 1.3 µg/g
same,Compound A concentration Plasma,[2]; [7],<LLOQ (4×) and 6.37 ng/mL
same,Compound A concentration BALF,"[2]; formulation conc. 0.40%, Mean",1870 ± 1902 ng/mL
same,Compound A concentration Lung,"[2]; formulation conc. 0.40%, Mean",6.7 ± 1.1 µg/g
same,Compound A concentration Plasma,"[2]; formulation conc. 0.40%, Mean",5.16 ± 2.39 ng/mL
same,Compound A concentration BALF,[2]; [8],1370 ng/mL and 5240 ng/mL and 1200 ng/mL and 804 ng/mL and 737 ng/mL
same,Compound A concentration Lung,[2]; [8],8.2 μg/g and 32.1(?) μg/g and 6.1 μg/g and 6.5 μg/g and 5.9 μg/g
same,Compound A concentration Plasma,[2]; [8],2.51 ng/mL and 3.98 ng/mL and 8.46 ng/mL and 6.73 ng/mL and 4.1 ng/mL
same,dissolution in organic solvents,Solubility of Compound A; DMSO and selected aprotic solvents with high dielectric constants,readily dissolves
same,solubility,Solubility of Compound A; between pH of 3 and 9,negligible solubility
same,solubility,"Solubility of Compound A; water, aqueous buffer, pH below 2 and above 10, read-out: water solubility",> 20 mg/mL
same,airway resistance,[3],reduced airway resistance
same,MMAD (GSD),[4]; 0.004% Compound A,0.64 (2.35)
same,MMAD (GSD),[4]; 0.04% Compound A,0.69 (1.74)
same,MMAD (GSD),[4]; 0.4% Compound A,0.83 (1.87)
same,MMAD (GSD),"[4]; 4% Compound A, MMAD = mass median aerodynamic diameter, GSD = geometric standard deviation",1.35 (1.98)
same,solution stability,"[5]; ~3.3 mg/mL, pH ~3, tyloxapol/PVP 90F (Example 5)",stable for more than an hour
same,time to start of precipitation,"[5]; ~5 mg/mL, pH ~3, tyloxapol/PVP 90F (Example 6)",~20 min
